# From PubChem BioAssay AID248 (DTP/NCI, 2004)
# Toxic doses and inconclusive results are not listed. Square brackets hold non-standard residues; d marks the D form. Peptide text beside a SMILES is read from it. * marks the point of attachment. Cbz = O=C(OCc1ccccc1)*; OBn = c1ccc(CO*)cc1; Sar = CNCC(=O)O
# Tested on: L1210 leukemia ip in BDF1 mice, survival T/C
# Experiment: NCI In Vivo Anticancer Drug Screen. Data for tumor model L1210 Leukemia (intraperitoneal) in B6D2F1 (BDF1) mice
# Conditions: higher = longer survival
# In short: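 Survival endpoint. Drug-treated group vs vehicle group, expressed as T divided by C. Tumor passaged by transplantation.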
# [1] = endpoint: mean survival time, dose: 100.0 mg/kg/injection, schedule: Q04DX002 (ip), vehicle: Klucel (hydroxypropylcellulose) (HPC)
# [2] = endpoint: mean survival time, dose: 200.0 mg/kg/injection, schedule: Q04DX002 (ip), vehicle: Klucel (hydroxypropylcellulose) (HPC)
# [3] = endpoint: mean survival time, dose: 400.0 mg/kg/injection, schedule: Q04DX002 (ip), vehicle: Klucel (hydroxypropylcellulose) (HPC)
# [4] = endpoint: mean survival time, dose: 100.0 mg/kg/injection, schedule: Q04DX003 (ip), vehicle: saline with Tween-80
# [5] = endpoint: mean survival time, dose: 200.0 mg/kg/injection, schedule: Q04DX003 (ip), vehicle: saline with Tween-80
# [6] = endpoint: mean survival time, dose: 400.0 mg/kg/injection, schedule: Q04DX003 (ip), vehicle: saline with Tween-80
# [7] = endpoint: mean survival time, dose: 100.0 mg/kg/injection, schedule: Q01DX001 (ip), vehicle: carboxymethylcellulose (CMC)
# [8] = endpoint: mean survival time, dose: 200.0 mg/kg/injection, schedule: Q01DX001 (ip), vehicle: carboxymethylcellulose (CMC)
# [9] = endpoint: mean survival time, dose: 400.0 mg/kg/injection, schedule: Q01DX001 (ip), vehicle: carboxymethylcellulose (CMC)
# [10] = endpoint: mean survival time, dose: 100.0 mg/kg/injection, schedule: Q01DX009 (ip), vehicle: Klucel (hydroxypropylcellulose) (HPC)
# [11] = endpoint: mean survival time, dose: 200.0 mg/kg/injection, schedule: Q01DX009 (ip), vehicle: Klucel (hydroxypropylcellulose) (HPC)
# [12] = endpoint: mean survival time, dose: 400.0 mg/kg/injection, schedule: Q01DX009 (ip), vehicle: Klucel (hydroxypropylcellulose) (HPC)
# [13] = endpoint: mean survival time, dose: 50.0 mg/kg/injection, schedule: Q01DX009 (ip), vehicle: Klucel (hydroxypropylcellulose) (HPC)
# [14] = endpoint: mean survival time, dose: 50.0 mg/kg/injection, schedule: Q01DX001 (ip), vehicle: saline
# [15] = endpoint: mean survival time, dose: 100.0 mg/kg/injection, schedule: Q01DX001 (ip), vehicle: saline
# [16] = endpoint: mean survival time, dose: 200.0 mg/kg/injection, schedule: Q01DX001 (ip), vehicle: saline
# [17] = endpoint: mean survival time, dose: 12.5 mg/kg/injection, schedule: Q01DX009 (ip), vehicle: Klucel (hydroxypropylcellulose) (HPC)
# [18] = endpoint: mean survival time, dose: 25.0 mg/kg/injection, schedule: Q01DX009 (ip), vehicle: Klucel (hydroxypropylcellulose) (HPC)
# [19] = endpoint: mean survival time, dose: 100.0 mg/kg/injection, schedule: Q04DX003 (ip), vehicle: Klucel (hydroxypropylcellulose) (HPC)
# [20] = endpoint: mean survival time, dose: 200.0 mg/kg/injection, schedule: Q04DX003 (ip), vehicle: Klucel (hydroxypropylcellulose) (HPC)
# [21] = endpoint: mean survival time, dose: 400.0 mg/kg/injection, schedule: Q04DX003 (ip), vehicle: Klucel (hydroxypropylcellulose) (HPC)
# [22] = endpoint: mean survival time, dose: 400.0 mg/kg/injection, schedule: Q01DX001 (ip), vehicle: saline
smiles,measurement,setting,value
CCOC(=O)C(c1ccccc1)C(NC(C)=O)(C(=O)OCC)C(=O)OCC (configuration not stated),T/C,[1],114 % of control
same,T/C,[2],104 % of control
same,T/C,[3],93 % of control
CN(CC(=O)OCc1ccccc1)C(=O)CNC(=O)CNC(=O)OCc1ccccc1 (Cbz-Gly-Gly-[Sar]-OBn),T/C,[4],92 % of control
same,T/C,[5],90 % of control
same,T/C,[6],95 % of control
O=C(CC(=O)c1ccccc1)c1ccccc1.O=C(CC(=O)c1ccccc1)c1ccccc1.O=C(CC(=O)c1ccccc1)c1ccccc1.[Al],T/C,"endpoint: mean survival time, dose: 100.0 mg/kg/injection, schedule: Q04DX002 (ip), vehicle: gum acacia",100 % of control
same,T/C,"endpoint: mean survival time, dose: 200.0 mg/kg/injection, schedule: Q04DX002 (ip), vehicle: gum acacia",97 % of control
same,T/C,"endpoint: mean survival time, dose: 400.0 mg/kg/injection, schedule: Q04DX002 (ip), vehicle: gum acacia",90 % of control
COc1ccc(C=Nc2cccc(O)c2)cc1,T/C,[7],95 % of control
same,T/C,[8],95 % of control
same,T/C,[9],92 % of control
Cc1ccccc1N1C(=O)c2ccccc2C1=O,T/C,[10],95 % of control
same,T/C,[1],96 % of control
same,T/C,[11],98 % of control
same,T/C,[2],86 % of control
same,T/C,[12],98 % of control
same,T/C,[3],93 % of control
N=c1nc2n(cc1F)C1OC(CO)C(O)C1O2 (configuration not stated),T/C,"endpoint: median survival time, dose: 200.0 mg/kg/injection, schedule: Q01DX005 (ip), vehicle: other",163 % of control
same,T/C,"endpoint: median survival time, dose: 400.0 mg/kg/injection, schedule: Q01DX005 (ip), vehicle: other",163 % of control
ClC1(Cl)OC(Cl)(Cl)C(Cl)(Cl)OC1(Cl)Cl,T/C,[13],98 % of control
same,T/C,[10],98 % of control
same,T/C,[11],102 % of control
C=C1CCC2CCCN2C1=O (configuration not stated),T/C,"endpoint: mean survival time, dose: 25.0 mg/kg/injection, schedule: Q01DX001 (ip), vehicle: saline",94 % of control
same,T/C,[14],97 % of control
same,T/C,[15],108 % of control
same,T/C,[16],87 % of control
CCOCCOCCCNCC(=O)N1CCN(C(=O)CNCCCOCCOCC)CC1,T/C,"endpoint: mean survival time, dose: 50.0 mg/kg/injection, schedule: Q01DX001 (ip), vehicle: carboxymethylcellulose (CMC)",97 % of control
same,T/C,[7],98 % of control
same,T/C,[8],108 % of control
same,T/C,[9],103 % of control
CC(C)CCOC(c1ccc2c(c1)OCO2)C(C)Br (configuration not stated),T/C,[4],94 % of control
same,T/C,[5],87 % of control
same,T/C,[6],94 % of control
Cc1cc(C)c(NS(=O)(=O)c2ccc(Cl)cc2)cc1C,T/C,[10],108 % of control
same,T/C,[11],106 % of control
same,T/C,[12],100 % of control
COc1ccc(C)cc1NC(=O)Nc1cc([N+](=O)[O-])ccc1C,T/C,[10],93 % of control
same,T/C,[11],98 % of control
same,T/C,[12],102 % of control
C[P+](C)(Cc1ccc([N+](=O)[O-])cc1)c1ccccc1,T/C,"endpoint: mean survival time, dose: 12.0 mg/kg/injection, schedule: Q04DX003 (ip), vehicle: saline",98 % of control
same,T/C,"endpoint: mean survival time, dose: 25.0 mg/kg/injection, schedule: Q01DX009 (ip), vehicle: saline",105 % of control
same,T/C,"endpoint: mean survival time, dose: 25.0 mg/kg/injection, schedule: Q04DX003 (ip), vehicle: saline",104 % of control
same,T/C,"endpoint: mean survival time, dose: 50.0 mg/kg/injection, schedule: Q01DX009 (ip), vehicle: saline",109 % of control
same,T/C,"endpoint: mean survival time, dose: 50.0 mg/kg/injection, schedule: Q04DX003 (ip), vehicle: saline",104 % of control
Nc1ncnc(N)c1NC(=O)COc1ccc([N+](=O)[O-])cc1,T/C,"endpoint: mean survival time, dose: 100.0 mg/kg/injection, schedule: Q01DX001 (ip), vehicle: Klucel (hydroxypropylcellulose) (HPC)",102 % of control
same,T/C,"endpoint: mean survival time, dose: 200.0 mg/kg/injection, schedule: Q01DX001 (ip), vehicle: Klucel (hydroxypropylcellulose) (HPC)",94 % of control
same,T/C,"endpoint: mean survival time, dose: 400.0 mg/kg/injection, schedule: Q01DX001 (ip), vehicle: Klucel (hydroxypropylcellulose) (HPC)",100 % of control
CNC(=S)N/N=C(/C)CCC/C(C)=N/NC(=S)NC,T/C,"endpoint: mean survival time, dose: 1.56 mg/kg/injection, schedule: Q03HX024 (ip), vehicle: Klucel (hydroxypropylcellulose) (HPC)",95 % of control
same,T/C,"endpoint: mean survival time, dose: 3.12 mg/kg/injection, schedule: Q01DX009 (ip), vehicle: Klucel (hydroxypropylcellulose) (HPC)",96 % of control
same,T/C,"endpoint: mean survival time, dose: 3.12 mg/kg/injection, schedule: Q03HX024 (ip), vehicle: Klucel (hydroxypropylcellulose) (HPC)",102 % of control
same,T/C,"endpoint: mean survival time, dose: 6.25 mg/kg/injection, schedule: Q01DX009 (ip), vehicle: Klucel (hydroxypropylcellulose) (HPC)",96 % of control
same,T/C,"endpoint: mean survival time, dose: 6.25 mg/kg/injection, schedule: Q03HX024 (ip), vehicle: Klucel (hydroxypropylcellulose) (HPC)",97 % of control
same,T/C,"endpoint: mean survival time, dose: 6.25 mg/kg/injection, schedule: Q04DX003 (ip), vehicle: Klucel (hydroxypropylcellulose) (HPC)",108 % of control
same,T/C,[17],92 % of control
same,T/C,"endpoint: mean survival time, dose: 12.5 mg/kg/injection, schedule: Q03HX024 (ip), vehicle: Klucel (hydroxypropylcellulose) (HPC)",95 % of control
same,T/C,"endpoint: mean survival time, dose: 12.5 mg/kg/injection, schedule: Q04DX003 (ip), vehicle: Klucel (hydroxypropylcellulose) (HPC)",101 % of control
same,T/C,[18],101 % of control
same,T/C,"endpoint: mean survival time, dose: 25.0 mg/kg/injection, schedule: Q03HX024 (ip), vehicle: Klucel (hydroxypropylcellulose) (HPC)",92 % of control
same,T/C,"endpoint: mean survival time, dose: 25.0 mg/kg/injection, schedule: Q04DX003 (ip), vehicle: Klucel (hydroxypropylcellulose) (HPC)",103 % of control
same,T/C,[13],98 % of control
same,T/C,"endpoint: mean survival time, dose: 50.0 mg/kg/injection, schedule: Q04DX003 (ip), vehicle: Klucel (hydroxypropylcellulose) (HPC)",101 % of control
same,T/C,[19],103 % of control
same,T/C,[20],93 % of control
same,T/C,[21],108 % of control
CC(=O)OCC1OC(n2c(=S)[nH]c3c(N)ncnc32)C(OC(C)=O)C1OC(C)=O (configuration not stated),T/C,[14],98 % of control
same,T/C,[15],98 % of control
same,T/C,[16],95 % of control
same,T/C,[22],98 % of control
C/C(CCC(=O)O)=N/Nc1nnc(N/N=C(/C)CCC(=O)O)c2ccccc12,T/C,[14],102 % of control
same,T/C,[15],102 % of control
same,T/C,[16],102 % of control
same,T/C,[22],120 % of control
Cc1cccc(NC(=O)Oc2ccc(-c3ccccc3)cc2)c1,T/C,[10],98 % of control
same,T/C,[1],95 % of control
same,T/C,[11],97 % of control
same,T/C,[2],88 % of control
same,T/C,[12],97 % of control
same,T/C,[3],88 % of control
COc1ccc(CC(=O)NCCN(CCN(CCO)C(=O)Cc2ccc(OC)cc2)C(=O)Cc2ccc(OC)cc2)cc1,T/C,"endpoint: mean survival time, dose: 100.0 mg/kg/injection, schedule: Q01DX009 (ip), vehicle: saline with Tween-80",95 % of control
same,T/C,[4],100 % of control
same,T/C,"endpoint: mean survival time, dose: 200.0 mg/kg/injection, schedule: Q01DX009 (ip), vehicle: saline with Tween-80",90 % of control
same,T/C,[5],102 % of control
same,T/C,"endpoint: mean survival time, dose: 400.0 mg/kg/injection, schedule: Q01DX009 (ip), vehicle: saline with Tween-80",91 % of control
same,T/C,[6],94 % of control
CCOc1ccc(NC(C)=O)cc1,T/C,[19],96 % of control
same,T/C,[20],104 % of control
same,T/C,[21],115 % of control
CNC(=O)NNC(=O)CNC(=O)Nc1cccc(C(F)(F)F)c1,T/C,[17],94 % of control
same,T/C,[18],102 % of control
same,T/C,[13],98 % of control
COC(=O)OCC1OC(OC(C)=O)C2OC(=O)OC12 (configuration not stated),T/C,[15],97 % of control
same,T/C,[16],97 % of control
same,T/C,[22],97 % of control
O=C(Nc1ccccc1C(F)(F)F)c1cccc(Cl)c1,T/C,"endpoint: mean survival time, dose: 50.0 mg/kg/injection, schedule: Q01DX009 (ip), vehicle: saline + alcohol",89 % of control
same,T/C,"endpoint: mean survival time, dose: 100.0 mg/kg/injection, schedule: Q01DX009 (ip), vehicle: saline + alcohol",101 % of control
same,T/C,"endpoint: mean survival time, dose: 200.0 mg/kg/injection, schedule: Q01DX009 (ip), vehicle: saline + alcohol",94 % of control
